Patent US11266614B2, “Oral formulations of belinostat” (ONXEO, priority 2017, dated 2022)

Assays:
[1] = Amorphous or crystalline state by powder X-ray diffraction (XRPD); assay type: physicochemical; conditions: for XRPD 1 week 40/75 open: 1 week 40° C. 75% RH open; for XRPD initial: freshly prepared
Method: Amorphous or crystalline state of freshly prepared spray dried dispersions described in Example 2 was assessed by Powder X-ray diffraction (XRPD). The same analysis was repeated after 1 week storage at 40° C. and 75% relative humidity in open conditions. XRPD patterns were obtained with Rigaku MiniFlex 600 X-Ray diffractometer operating with a copper anode ([…]; Kα2=1.54439 Å), generator set at 45 kV and 15 mA, in 2-theta range 3-40° 2θ, scanned at a rate of 2.5° 2θ per minute in continuous scanning mode, and using a D/teX Ultra high speed detector.

[2] = Chemical stability: impurities by HPLC, initial and after 1 week 40° C./75% RH; assay type: physicochemical
Method: After a secondary drying overnight at 40° C. 15% RH in a convection tray dryer, the different ASD were characterized for physical stability (XRPD, Tg versus Relative humidity), chemical stability (impurity by HPLC after 1 week 40° C./75% RH) and in vitro dissolution.
Purity of each batch of ASD was tested by HPLC analysis on sample just after preparation and after one week storage in accelerated stability conditions: 40° C./75% RH open or closed. In closed conditions, ASDs were placed in closed bottles (heat induction seal) containing 1 g SORB-IT desiccant canister.
HPLC-analysis was performed using an Agilent 1100 or 1200 system with binary or quaternary pump, a diode array detector, a refrigerated autosampler, and column oven. Data analysis was performed using Empower 3 software. The column used was Zorbax Bonus RP 4.6×150 mm (3.5 μm). Acetonitrile/20 mM Potassium phosphate buffer pH 3.0 was used as mobile phase with a gradient concentration at a flow rate of 1.0 mL/min; UV detection was used at a wavelength of 220 nm.

[3] = Non-sink in vitro dissolution, micro-centrifuge method; assay type: physicochemical; conditions: PBS pH 6.5 with 0.5 wt % SIF; for Dissolution C90 min / Dissolution C20 h: 37° C., theoretical maximum 1000 μg/mL; for Dissolution C90 min: 90 min; for Dissolution C20 h: 1200 min
Method: Dissolution of spray dried materials of belinostat has been tested in vitro, in non-sink conditions, in order to evaluate the ability of formulations to achieve supersaturation and sustainability of supersaturation relative to crystalline drug.
Dissolution was assessed using micro-centrifuge method (Curatolo et al. Pharm Res 2009:26(6):1419-1431). Micro-centrifuge dissolution method consisted of introducing a 1.8 mg equivalent belinostat as ASD into an empty micro-centrifuge tube and add 1.8 mL total volume dissolution media (PBS pH 6.5 with 0.5 wt % Simulated Intestinal Fluid) to achieve a theoretical maximum belinostat concentration in solution of 1000 μg/mL. For some formulations (marked with* in Table 2), ASDs were first exposed in pH 2.0 gastric media at 2000 μg/mL for 30 min before to be transferred to the PBS pH 6.5 with 0.5 wt % Simulated Intestinal Fluid at a final theoretical maximum belinostat concentration in solution of 1000 μg/mL. Tubes were placed at 37° C. Aliquot (50 μL) were taken from supernatant after centrifugation 15 800 g for 1 min at each time point (5, 10, 20, 45, 90 and 1200 minutes). Between each time point, solids in the centrifuge tube were resuspended by mixing the sample continuously on the vortex mixer for 30 s and the tube was placed back at 37° C. Aliquot samples were diluted using acetonitrile and drug concentration was determined by HPLC.

[4] = vorinostat: phase I trial; cited from earlier work
[5] = cited from earlier work
[6] = above pH 8.5; cited from earlier work
[7] = cited from earlier work; remark: listed apart in the source
[8] = Glass transition temperature (Tg) by modulated DSC; assay type: physicochemical
Method: To also evaluate the physical stability of prepared ASDs, glass transition temperature (Tg) was determined at two relative humidity (RH) conditions (<5% and 75% RH) by modulated differential scanning calorimetry (m-DSC).
DSC curves were recorded using a TA Instruments Q2000 differential scanning calorimeter. Samples were heated under nitrogen flow from 0 to 200° C. at 2.5° C.±1.5° C./min in non-hermetically sealed pan for <5% RH analysis or from 0 to 130° C. at 2.5° C.±1.5° C./80 sec in hermetically sealed pan for 75% RH analysis.

[9] = 1 week 40° C./75% RH closed, desiccant

Structure (SMILES): O=C(/C=C/c1cccc(S(=O)(=O)Nc2ccccc2)c1)NO [Formulation 1]
- XRPD 1 week 40/75 open [1]: Crystalline
- XRPD initial [1]: Crystalline
- Bel Acid, Initial ([2]; just after preparation): Bel Acid <0.05 area %
- Total imp, Initial ([2]; just after preparation): Total imp <0.05 area %
- Dissolution C90 min [3]: 270 µg/mL
- Dissolution C20 h [3]: 310 µg/mL

Structure (SMILES): O=C(CCCCCCC(=O)Nc1ccccc1)NO [Vorinostat]
- absolute oral bioavailability [4]: 43%
- permeability (in words) [5]: moderate permeability

Structure (SMILES): O=C(/C=C/c1cccc(S(=O)(=O)Nc2ccccc2)c1)NO [belinostat, (2E)-N-hydroxy-3-[3-(phenylsulfamoyl)phenyl]prop-2-enamide]
- chemical stability in liquid solution [6]: poor chemical stability

Structure (SMILES): CC(O)C(=O)O.Cc1[nH]c2ccccc2c1CCNCc1ccc(/C=C/C(=O)NO)cc1 [panobinostat lactate]
- aqueous solubility, maximum ([7]; pH 2 or 3): ~5000 µg/mL
- aqueous solubility at neutral pH ([7]; pH 6.8): 0.3 mg/mL
- aqueous solubility ([7]; pH 7.6): 70 µg/mL
- solubility in water (in words) ([7]; water): slightly soluble in water
- absolute oral bioavailability [4]: approximately 21%
- permeability (in words) [5]: highly permeable

Structure (SMILES): O=C(/C=C/c1cccc(S(=O)(=O)Nc2ccccc2)c1)NO [Formulation 2]
- XRPD 1 week 40/75 open [1]: Crystalline
- XRPD initial [1]: Partially crystalline
- physical state upon storage (in words) ([1]; upon storage): undergoes recrystallization upon storage
- Tg <5% RH ([8]; <5% RH, m-DSC): 53 °C
- glass transition temperature (Tg) ([8]; amorphous belinostat without polymer): about 53 °C
- Bel Acid, 1 week 40/75 closed [2, 9]: Bel Acid 0.10 area %
- Bel Dimer, 1 week 40/75 closed [2, 9]: Bel Dimer 1.34 area %
- Total imp, 1 week 40/75 closed [2, 9]: Total imp 1.49 area %
- Bel Acid, 1 week 40/75 open ([2]; 1 week 40° C./75% RH open): Bel Acid 0.10 area %
- Bel Dimer, 1 week 40/75 open ([2]; 1 week 40° C./75% RH open): Bel Dimer 0.25 area %
- Observation on storage 1 week 40/75 open ([2]; 1 week 40° C./75% RH open): Recrystallization
- Total imp, 1 week 40/75 open ([2]; 1 week 40° C./75% RH open): Total imp 0.42 area %
- Bel Acid, Initial ([2]; just after preparation): Bel Acid 0.05 area %
- Bel Dimer, Initial ([2]; just after preparation): Bel Dimer 0.48 area %
- Total imp, Initial ([2]; just after preparation): Total imp 0.59 area %
- Observation during dissolution [3]: Recrystallization
- Dissolution C90 min [3]: 363 µg/mL
- Dissolution C20 h [3]: 387 µg/mL
